Test results from PMC6197744, “Triazolo[4,5-d]pyrimidines as Validated General Control Nonderepressible 2 (GCN2) Protein Kinase Inhibitors Reduce Growth of Leukemia Cells” (Computational and Structural Biotechnology Journal, 2018).

Columns and labels:
Experiment in all cases: NCI-60 one-dose screen
Assay type in all cases: cell-based
[1] = tested on: UO-31; settings: Homo sapiens; Renal UO-31, 10 μM, 48 h; read-out: Percent growth inhibition
Description: (§1) Compounds 1 and 2 were submitted to the National Cancer Institute NCI-60 Tumor Cell Screening Program (NCI number 800,700 and 800,701, respectively) for evaluation against the 60 cell line NCI panel at a single dose of 10 μM. […] Leukemia and breast cancer cell lines comprised the only cancer groups that were uniformly sensitive to both 1 and 2, with the greatest sensitivity seen in the leukemia SR cell line.
(§2) Compounds 1 and 2 were submitted to the NCI for growth inhibition screening against its panel of 60 cancer cell lines. The NCI screening protocol has extensively been described [[53], [54], [55], [56]]. Briefly, cancerous cell lines were grown in RPMI 1640 medium containing 5% fetal bovine serum and 2 mM L-glutamine. Depending on the doubling time of each cell line, 5000–40,000 cells were seeded in 96-well plates for 24 h. Cells were then treated with compounds 1 or 2 at a concentration of 10 μM and incubated for 48 h at 37 °C in a humidified atmosphere containing 5% CO2. The cells were then fixed and stained with sulforhodamine B (SRB) to determine their viability. The data were analyzed using a program called COMPARE to determine the percent growth inhibition of each compound.

[2] = tested on: K-562; settings: Homo sapiens, K562; Leukemia K-562, 10 μM, 48 h; read-out: Percent growth inhibition
Description: as §1, §2

[3] = tested on: A498; settings: Homo sapiens; Renal A498, 10 μM, 48 h; read-out: Percent growth inhibition
Description: as §1, §2

[4] = tested on: COLO205; settings: Homo sapiens, COLO 205; Colon COLO205, 10 μM, 48 h; read-out: Percent growth inhibition
Description: as §1, §2

[5] = tested on: OVCAR-5; settings: Homo sapiens; Ovarian OVCAR-5, 10 μM, 48 h; read-out: Percent growth inhibition
Description: as §1, §2

[6] = tested on: DU-145; settings: Homo sapiens; Prostate DU-145, 10 μM, 48 h; read-out: Percent growth inhibition
Description: as §1, §2

[7] = tested on: MDA-MB-468; settings: Homo sapiens; Breast MDA-MB-468, 10 μM, 48 h; read-out: Percent growth inhibition
Description: as §1, §2

[8] = tested on: CAKI-1; settings: Homo sapiens; Renal CAKI-1, 10 μM, 48 h; read-out: Percent growth inhibition
Description: as §1, §2

[9] = tested on: KM12; settings: Homo sapiens; Colon KM12, 10 μM, 48 h; read-out: Percent growth inhibition
Description: as §1, §2

[10] = tested on: RPMI-8226; settings: Homo sapiens; Leukemia RPMI-8226, 10 μM, 48 h; read-out: Percent growth inhibition
Description: as §1, §2

[11] = tested on: M14; settings: Homo sapiens; Melanoma M14, 10 μM, 48 h; read-out: Percent growth inhibition
Description: as §1, §2

[12] = tested on: MCF7; settings: Homo sapiens; Breast MCF7, 10 μM, 48 h; read-out: Percent growth inhibition
Description: as §1, §2

[13] = tested on: SK-OV-3; settings: Homo sapiens, SK-OV-3, 48 h, Ovarian SK-OV-3, 10 μM, read-out: Percent growth inhibition
Description: as §1, §2

[14] = tested on: NCI-H322M; settings: Homo sapiens, Non-Small Cell Lung NCI-H322M, 48 h, read-out: Percent growth inhibition
Description: as §1, §2

[15] = tested on: A549; settings: Homo sapiens; Non-Small Cell Lung A549, 10 μM, 48 h; read-out: Percent growth inhibition
Description: as §1, §2

[16] = tested on: 786-0; settings: Homo sapiens; Renal 786-0, 10 μM, 48 h; read-out: Percent growth inhibition
Description: as §1, §2

[17] = tested on: HCC-2998; settings: Homo sapiens; Colon HCC-2998, 10 μM, 48 h; read-out: Percent growth inhibition
Description: as §1, §2

[18] = tested on: CCRF-CEM; settings: Homo sapiens, Leukemia CCRF-CEM, 48 h, read-out: Percent growth inhibition
Description: as §1, §2

[19] = tested on: NCI-H226; settings: Homo sapiens, NCI-H226, 48 h, Non-Small Cell Lung NCI-H226, 10 μM, read-out: Percent growth inhibition
Description: as §1, §2

[20] = tested on: HOP-92; settings: Homo sapiens; Non-Small Cell Lung HOP-92, 10 μM, 48 h; read-out: Percent growth inhibition
Description: as §1, §2

[21] = tested on: T-47D; settings: Homo sapiens, T47D, Breast T-47D, 48 h, read-out: Percent growth inhibition
Description: as §1, §2

[22] = tested on: OVCAR-4; settings: Homo sapiens; Ovarian OVCAR-4, 10 μM, 48 h; read-out: Percent growth inhibition
Description: as §1, §2

[23] = tested on: TK-10; settings: Homo sapiens; Renal TK-10, 10 μM, 48 h; read-out: Percent growth inhibition
Description: as §1, §2

[24] = tested on: SR; settings: Homo sapiens, 48 h, Leukemia SR, read-out: Percent growth inhibition
Description: as §1, §2

[25] = tested on: SW-620; settings: Homo sapiens; Colon SW-620, 10 μM, 48 h; read-out: Percent growth inhibition
Description: as §1, §2

[26] = tested on: SF-539; settings: Homo sapiens; CNS SF-539, 10 μM, 48 h; read-out: Percent growth inhibition
Description: as §1, §2

[27] = tested on: NCI-H460; settings: Homo sapiens; Non-Small Cell Lung NCI-H460, 10 μM, 48 h; read-out: Percent growth inhibition
Description: as §1, §2

| Compound | inhibition at 10 µM [1] | inhibition at 10 µM [2] | inhibition at 10 µM [3] | inhibition at 10 µM [4] | inhibition at 10 µM [5] | inhibition at 10 µM [6] | inhibition at 10 µM [7] | inhibition at 10 µM [8] | inhibition at 10 µM [9] | inhibition at 10 µM [10] | inhibition at 10 µM [11] | inhibition at 10 µM [12] | inhibition at 10 µM [13] | inhibition at 10 µM [14] | inhibition at 10 µM [15] | inhibition at 10 µM [16] | inhibition at 10 µM [17] | inhibition at 10 µM [18] | inhibition at 10 µM [19] | inhibition at 10 µM [20] | also measured |
| --- | --- | --- | --- | --- | --- | --- | --- | --- | --- | --- | --- | --- | --- | --- | --- | --- | --- | --- | --- | --- | --- |
| CCn1cc(Nc2ncc3nnn(-c4ccc(C(=O)OC)cc4)c3n2)cn1 [Compound 1, Methyl 4-(5-((1-ethyl-1H-pyrazol-4-yl)amino)-3H-[1,2,3]triazolo[4,5-d]pyrimidin-3-yl)benzoate] | 10.4% | 20.9% | 10.5% | 16.3% | -5.43% | -9.96% | 6.13% | 1.59% | 7.33% | 10.8% | 17% | 11.6% | 22% | -3.7% | 18.6% | -6.68% | -3.6% | 39.5% | 34.6% | -8.76% | inhibition at 10 µM [21]: 25.8%; inhibition at 10 µM [22]: -12%; inhibition at 10 µM [23]: 6.48%; inhibition at 10 µM [24]: 43.4%; inhibition at 10 µM [25]: -5.07%; inhibition at 10 µM [26]: -9.47%; inhibition at 10 µM [27]: 0.26% |
| CCOc1ccc(-n2nnc3cnc(Nc4cnn(CC)c4)nc32)cc1 [Compound 2, 3-(4-Ethoxyphenyl)-N-(1-ethyl-1H-pyrazol-4-yl)-3H-[1,2,3]triazolo[4,5-d]pyrimidin-5-amine] | 3.24% | 17.2% | 44.1% | 29.9% | -11.8% | 2.46% | 9.91% | 0.05% | 25.9% | 17% | 10.9% | 24.2% | 46.3% | -5.07% | 25.2% | 21.7% | -2.67% | 14% | 46.3% | -5.76% | inhibition at 10 µM [21]: 20.7%; inhibition at 10 µM [22]: -14.7%; inhibition at 10 µM [23]: 1.47%; inhibition at 10 µM [24]: 57.5%; inhibition at 10 µM [25]: -17.3%; inhibition at 10 µM [26]: 32%; inhibition at 10 µM [27]: 5.14% |
